The NIST ThermoML archive (doi:10.1021/acs.jced.5b00075)

Experiments:
[1] = Crystal; DTA
[2] = Molar enthalpy of transition or fusion; details: Crystal; DSC
[3] = molar heat capacity at constant pressure; details: 101.33 kPa, Small sample (50 mg) DSC

C(=C\c1ccccc1)/CN1CCN(C(c2ccccc2)c2ccccc2)CC1 [cinnarizine]
Details	Molar enthalpy of transition or fusion [kcal/mol]	Normal melting temperature [°C]
[1]	–	120.83
[2]	8.87	–

[3]
Details	molar heat capacity at constant pressure [J/K/mol]
305 K, Crystal	307.19
310 K, Crystal	314.6
315 K, Crystal	322.02
320 K, Crystal	329.43
325 K, Crystal	336.84
330 K, Crystal	344.26
335 K, Crystal	351.67
340 K, Crystal	359.09
345 K, Crystal	366.5
350 K, Crystal	373.91
355 K, Crystal	381.33
360 K, Crystal	388.74
365 K, Crystal	396.15
370 K, Crystal	403.57
375 K, Crystal	410.98
380 K, Crystal	418.4
385 K, Crystal	425.81
400 K, Liquid	558.85
405 K, Liquid	563.97
410 K, Liquid	569.09
415 K, Liquid	574.21
